“Also recorded” adds a separate entry of the source.
What was measured:
[1] = test system: C57MG tumors; test: In vivo microPET/CT imaging of COX2 in tumor-bearing mouse model; set-up: species or system mice
Experimental: The experimental protocol for animal imaging was approved by the Vanderbilt Medical Center Institutional Animal Care and Use Committee. Nude mice 6–8 weeks of age (n = 8, from Jackson Laboratory, Bar Harbor, ME, USA) were implanted subcutaneously under anesthesia (isoflurane mixed […]) with 1.0 × 10^6 C57MG cells in the mammary fat pad. The progress of tumor growth was monitored via every-other-day measurement of tumor size and animal weight. When the tumors reached approximately 4 mm in diameter, in vivo PET imaging was performed.
Positron emission tomography imaging was performed using the microPET Focus 220 (Siemens Pre-clinical, Knoxville, TN, USA) in a static acquisition mode for 30 min at 60, 120, and 150 min after injection of ^18F-COX2 probe 13 (150–200 μCi, 100–130 μL) into awake, non-fasted mice (n = 8) via the tail vein. To obtain whole-body scans, mice were placed in a supine position. The data were acquired in a 3-D mode with an axial span of approximately 8 cm. During the scanning, the animals were anesthetized using isoflurane and the temperature inside the scanner was maintained at 30°C using a pad connected to a circulating warm water bath. After PET imaging, a CT image was acquired using the microCAT II (Siemens Pre-clinical, Knoxville, TN, USA) using the same animal holder with the subjects maintained under anesthesia throughout, and then the mice were immediately euthanized upon completion of the CT scan. PET images were reconstructed using the iterative MAP reconstruction algorithm with 18 iterations and a beta smoothing value of 0.001 into 128 × 128 × 95 slices with a voxel size of 0.475 mm × 0.475 mm × 0.796 mm. The PET and CT images were co-registered using the imaging tool AMIDE ([Loening and Gambhir, 2003]).

[2] = Biodistribution by gamma counting of tissues after imaging; assay type: in vivo; conditions: non-fasted tumor-bearing mice (n = 3), 150 min post injection (Figure 5)
Text: After the imaging session, the mice were euthanized and hearts, muscles, blood, livers, spleens, kidneys, stomachs, brains, intestines, tumors, and lungs were retrieved. The tissues were weighed and assessed for ^18F radioactivity using a gamma counter (CRC-15W, Capintec, Ramsey, NJ, USA).

Hepatic uptake of the probe (PET) ([1]; non-fasted C57MG tumor-bearing mice, i.v., PET imaging): predominant hepatic uptake
Tumor accumulation and retention of the probe (PET, PET/CT) ([1]; non-fasted nude mice with C57MG mammary fat pad tumors, i.v. tail vein, static whole-body scan 150 min after administration, vs background p < 0.05): significant accumulation in the tumor
Structure (SMILES): Cc1csc(Cc2c3cccccc-3c(C(=O)c3ccc([18F])cc3)c2C)n1 [compound 13]
Bone signal / in vivo defluorination (PET) ([1]; non-fasted C57MG tumor-bearing mice, i.v., up to 2.5 h post injection): negligible signal in the bone; also recorded: no defluorination of the probe in vivo
Biodistribution: tissue uptake (% injection dose/g tissue) [2]: the probe accumulated in the tumor; also recorded: highest uptake was detected in the liver, followed by the intestine
